# Columns and labels:
# [1] = grain size distribution by laser diffraction (Sympatec Helos, RODOS dry disperser); type: physicochemical; details: vol. % of particles smaller than value
# Protocol: The particle size distribution (grain size distribution) is measured by means of a laser diffraction, which provides a distribution curve of the particle sizes (System Sympatec Helos, RODOS dry disperser). dx means that x volume percent (vol. %) of the particles have a diameter that is smaller than the stated value. Thus, at a d50 value of 1 μm, 50 vol. % of the particles have a diameter smaller than 1 μm (micrometer). When the d10, d99 or d100 is 2 μm, 10, 99 or 100 vol. % of the particles have a diameter smaller than 2 μm.
# A 100-ml stirred vessel with blade stirrer is charged with 160 g of Y-stabilized zirconium oxide spheres with a diameter of 0.5 mm plus 30 ml water. A solution of 1.5 g drospirenone in 6.25 ml ethanol/water 4:1 (v/v) is added, with stirring. After precipitation of a mainly amorphous phase, transformation to the crystalline modification begins after approximately 2 min. This is completed after 10 to 15 min. After completion of the phase transformation, a solution of 4.5 g drospirenone in 18.75 ml ethanol/water 4:1 (v/v) and in the same ratio 90 ml water is added dropwise within 15 min, with stirring at 1500 rpm. Simultaneously, with approximately constant filling level, product suspension is drawn off. Addition and product withdrawal can also take place quasicontinuously in smaller portions without any adverse effect on the result, if the above time frame is maintained. After the end of addition, to make the yield complete, approx. 60 ml water is used for rinsing. Alternatively, the suspension in the crystallizer can also be left as starting suspension for the next batch. Altogether, 200 g of suspension is obtained, with a solids content of 25 mg per ml. Approximately 15 ml of this suspension is filtered on a G4 frit and the solid is air-dried. The grain size distribution of the dried substance is determined by laser diffraction (Sympatec Helos, RODOS dispersing system).
# Granulometric analysis is carried out by laser diffraction (Sympatec Helos, RODOS dispersing system):
# Granulometric analysis was carried out by laser diffraction (Sympatec Helos, RODOS dispersing system, dispersing pressure 5 bar).
# [2] = solubility kinetics by the paddle method (dissolved fraction by HPLC); type: physicochemical; details: 900 ml water, 37° C., 150 rpm; micronizate pre-dispersed in 2 ml PVP-containing solution
# Protocol: 14 mg of the solid form with Methocel E5 as excipient according to Example 2 with a content of active substance of 21.5 wt. % (equivalent to 3 mg drospirenone) is added to 900 ml water, at 37° C. and stirred at 150 rpm with a blade stirrer. A blind sample (starting value) and samples at 5, 10, 20, 30, and 60 min are taken, filtered in a 0.2 μm syringe filter and the dissolved fraction of drospirenone is determined by HPLC. A conventional micronizate (jet mill) serves as comparison. So that the dissolution behavior of the primary grains of the micronizate is assessed exclusively, wetting and agglomeration effects must be avoided. Therefore, before it was added to the 900 ml of water, the micronizate was dispersed in 2 ml of a PVP-containing solution. The process of release of the particles from the solid form and the subsequent process of dissolution are completed after 5 min, whereas with the conventional micronizate, even with perfect wetting and dispersion of the particles, still almost 30% of the active substance is undissolved after 5 min.
d16 (grain size distribution) [1] [μm],d50 (grain size distribution) [1] [μm],d99 (grain size distribution) [1] [μm],d100 (grain size distribution) [1] [μm],active substance undissolved after 5 min [2] [%],SMILES
0.52,1.48,4.63,6.00,–,"C[C@]12CCC(=O)C=C1[C@@H]1C[C@@H]1[C@H]1[C@@H]3[C@@H]4C[C@@H]4[C@@]4(CCC(=O)O4)[C@@]3(C)CC[C@@H]12 [Example 1, drospirenone]"
–,–,–,–,~30,"C[C@]12CCC(=O)C=C1[C@@H]1C[C@@H]1[C@H]1[C@@H]3[C@@H]4C[C@@H]4[C@@]4(CCC(=O)O4)[C@@]3(C)CC[C@@H]12 [conventional micronizate, drospirenone]"

# Source: patent publication US9173843B2, “Crystalline active ingredient microparticles, method for producing the same and use thereof in drugs” (Jesalis Pharma GMBH, priority 2008, dated 2015)
